Results taken from US6130248A, “Tricarboxylic acid-containing oxyalkyl esters and uses thereof” (Bar-ILAn University, priority 1996, dated 2000).

Key:
neoplastic cells = details: in vitro; cited from earlier work
cancer = cancer patients; cited from earlier work
[1] = test system: c-myc in HL-60 promyelocytic leukemia; details: cited from earlier work
[2] = test system: cancer cell lines (CFPAC, HL-60, HT-29, MCF7); assay: SRB cell proliferation assay, all cell lines together; type: cell-based
Procedure: (§1) The inhibition of cell proliferation was measured in the indicated cancer cell lines using the sulforhoamine B (SRB) assay as described by Monks et al., J. Natl. Can. Inst. […] The SRB assay is used to screen for anti-cancer drugs.

[3] = test system: 53 primary tumor cell lines; assay: Inhibition of clonogenicity of primary tumor cells; type: cell-based, human
Description: The tested tumor cells were from 11 non-small cell lung carcinomas, 10 breast carcinomas, 10 gastric carcinomas, 10 ovarian carcinomas, and 10 CNS tumors.

[4] = test system: Au565 breast carcinoma cells; assay: Differentiation by lipid staining; type: cell-based, human; details: 10 μM
Description: Lipid staining and/or immunochemical staining of casein can be used as a marker for cellular differentiation of breast cancer cells (Bacus et al., Md. Carcin. 3:350-362, 1990). Casein detection can be done by histochemical staining of breast cancer cells using a human antibody to human casein as described by Cheung et al., J. Clin. Invest. 75:1722-1728,which is incorporated by reference in its entirety.
In the case of the human breast carcinoma cell line Au565, 100%. Of the cells treated with 10 μM GOMB were positive for lipid staining whereas less than 1% of cells treated with the same concentration of AB were positive for lipid staining.

IMR-32 (Neuroblastoma) = assay: Clonogenicity of established tumor cell lines (soft agar); type: cell-based, human
Procedure: (§2) Inhibition of tumor growth was tested using cell lines as follows: […]

SK-N-SH (Neuroblastoma) = assay: as above; type: cell-based, human
Procedure: as §2

NBL-W-N (Neuroblastoma) = assay: as above; type: cell-based, human
Procedure: as §2

LA1-5S (Neuroblastoma) = assay: as above; type: cell-based, human
Procedure: as §2

[5] = test system: MCF7-WT (Breast Carcinoma); assay: as above; type: cell-based, human
Procedure: as §2

SMS-KAN (Neuroblastoma) = assay: as above; type: cell-based, human
Procedure: as §2

PC3 (Prostate Carcinoma) = assay: as above; type: cell-based, human
Procedure: as §2

NBAS-5 (Neuroblastoma) = assay: as above; type: cell-based, human
Procedure: as §2

K562 (Erytholeukemia) = assay: as above; type: cell-based, human
Procedure: as §2

SK-N-MC (Neuroblastoma) = assay: as above; type: cell-based, human
Procedure: as §2

[6] = test system: LNCaP (Prostate Carcinoma); assay: as above; type: cell-based, human
Procedure: as §2

[7] = test system: MCF7-40F (Breast Carcinoma); assay: as above; type: cell-based, human
Procedure: as §2

K-562 cells = assay: Induction of apoptosis (propidium iodide, flow cytometry); type: cell-based, human; details: 3 days
Procedure: (§3) Apoptosis was measured as described by Telford et al., 1991, Cell Physiol. 24:447-459, in HL-60 cells and in the human erthroblastic cell line, K-562. Cells were treated with COMB for 3 days, fixed, stained with propidium iodine and analyzed by flow cytometrly for cell cycle distribution. […] This region consisted of cells with fragmented DNA.

HL-60 cells [8] = assay: as above; type: cell-based, human; details: 3 days
Procedure: as §3

[9] = test system: erythroid cells from peripheral blood (HbF); assay: HbF in cultured erythroid cells; type: cell-based; details: Homo sapiens; 0.2 mM, relative to untreated control cultures; read-out: increase of HbF in cultured erythroid cells
Procedure: (§4) Hb Measurement: HB was measured by benzidine staining of K562 cells after 5 days exposure to GOMB or AB according to the procedure of Fibach et al. (1989) [full cite]. Quantitative measurement of HbF in K562 culture or human erythroid cultures was determined by ion-exchange high pressure liquid chromatography (HPLC) as described by Fibach et al., Blood 81:1630-1635, 1993.
Erythroid cells: Erythroid cells were isolated from peripheral blood of healthy individuals by the method of Fibach (1993).

K562 cells (HbF) [10] = assay: HbF synthesis in K562 cells (ion-exchange HPLC); type: cell-based, human
Procedure: (§5) K562 cells: K562 is an erthroblast cell line that develops some properties of erythroid, megakaryocyte or monocyte cells, depending on the specific stimulus, when induced by different chemicals. K562 cells were grown in RPMI with 10% FCS, supplemented with 2 mM glutamine. Cells were incubated at 37° C. in a humidified, 5% CO2 incubator.

K562 cells (HbF) [11] = assay: Hb-containing K562 cells by benzidine staining; type: cell-based, human; details: 5 days
Procedure: as §4, §5

MCF-7 cells (WAF) = assay: Apoptosis in breast cancer cells, staining with WAF antibody / Western blot; type: cell-based, human
Procedure: Induction of apoptosis by COMB and AB in MCF-7 cells was evaluated by staining cells with the WAF antibody and by Western blot analysis as described by Bacus et al., 1996, Oncogene 12:2535-2547.

MCF7 cells = assay: SRB cell proliferation assay; type: cell-based; details: Homo sapiens
Procedure: as §1

HT-29 cells = assay: SRB cell proliferation assay; type: cell-based; details: Homo sapiens; HT-29, SRB
Procedure: as §1

CFPAC cells = assay: SRB cell proliferation assay; type: cell-based
Procedure: as §1

HL-60 cells [12] = assay: SRB cell proliferation assay; type: cell-based; details: Homo sapiens; HL-60, SRB
Procedure: as §1

[13] = test system: established tumor cell lines; assay: Clonogenicity of established tumor cell lines, all lines together; type: cell-based, human; details: all cell lines
Procedure: as §2

[14] = test system: P3HR-1 EBV-positive lymphoma cells; assay: [3H]-thymidine incorporation in EBV-positive lymphoma cells; type: cell-based, human; details: 72 hours
Procedure: The effect of GOMB to AB was compared on EBV virus-associated tumors. EBV-positive cells from P3HR-1, a human lymphoma cell line, were incubated in growth medium with the specified concentration of GOMB, AB, ganciclovir (GC), or combination of these, for 72 hours, seeded in 96-well plates and pulsed with 1 μCi [^3 H]-thymidine/well during the last 16 hours of exposure to the compounds. Cells were harvested with a cell harvester, using glass microfiber filters. The incorporation of [^3 H]-thymidine was determined by retention of the acid insoluble fraction on filters and is expressed as CPM.

[15] = test system: colon carcinoma, leukemia and retinoblastoma cell lines; details: in vitro; cited from earlier work
[16] = Homo sapiens, IMR-32 clonogenicity
[17] = Homo sapiens, SK-N-SH clonogenicity
[18] = Homo sapiens, NBL-W-N clonogenicity
[19] = Homo sapiens, LA1-5S clonogenicity
[20] = Homo sapiens, MCF7-WT clonogenicity
[21] = Homo sapiens, SMS-KAN clonogenicity
[22] = Homo sapiens, PC3 clonogenicity
[23] = Homo sapiens, NBAS-5 clonogenicity
[24] = Homo sapiens, K562 clonogenicity
[25] = Homo sapiens, SK-N-MC clonogenicity
[26] = Homo sapiens, LNCaP clonogenicity
[27] = Homo sapiens, MCF7-40F clonogenicity

## CCCC(=O)O [BA, Butyric acid]
Neoplastic cells
  differentiating and antiproliferative activity: potent differentiating and antiproliferative agent in a wide spectra of neoplastic cells
cancer
  clinical antitumor efficacy: minimal or transient efficacy
[1]
  expression of c-myc: decrease in the expression

## CCCC(=O)OCOC(=O)CCCC(=O)O [GOMB, mono-(butyroyloxymethyl)glutarate]
[2]
  activity relative to AB by IC50 and IC90 values: at least 100 fold
[3]; Homo sapiens
  IC50: 34 µM
  IC90: 78 µM
[3]; average
  AB/GOMB IC50 Ratio: 13.9
  AB/GOMB IC90 Ratio: 27.3
[4]
  cells positive for lipid staining: 100%
IMR-32 (Neuroblastoma); [16]
  IC50: 23 µM
  IC90: 41 µM
IMR-32 (Neuroblastoma); IMR-32
  AB/GOMB IC50 Ratio: 38
  AB/GOMB IC90 Ratio: 87
SK-N-SH (Neuroblastoma); [17]
  IC50: 28 µM
  IC90: 95 µM
SK-N-SH (Neuroblastoma); SK-N-SH
  AB/GOMB IC50 Ratio: 35.6
  AB/GOMB IC90 Ratio: 37.8
NBL-W-N (Neuroblastoma); [18]
  IC50: 25 µM
  IC90: 70 µM
NBL-W-N (Neuroblastoma); NBL-W-N
  AB/GOMB IC50 Ratio: 19.6
  AB/GOMB IC90 Ratio: 44
LA1-5S (Neuroblastoma); [19]
  IC50: 39 µM
  IC90: 59 µM
LA1-5S (Neuroblastoma); LA1-5S
  AB/GOMB IC50 Ratio: 42
  AB/GOMB IC90 Ratio: 45
[5]; [20]
  IC50: 43.5 µM
  IC90: 97 µM
[5]; MCF7-WT
  AB/GOMB IC50 Ratio: 34.5
  AB/GOMB IC90 Ratio: 97.7
SMS-KAN (Neuroblastoma); [21]
  IC50: 27 µM
  IC90: 80 µM
SMS-KAN (Neuroblastoma); SMS-KAN
  AB/GOMB IC50 Ratio: 42
  AB/GOMB IC90 Ratio: 26
PC3 (Prostate Carcinoma); [22]
  IC50: 34.9 µM
  IC90: 96.1 µM
PC3 (Prostate Carcinoma); PC3
  AB/GOMB IC50 Ratio: 6.48
  AB/GOMB IC90 Ratio: 46.6
NBAS-5 (Neuroblastoma); [23]
  IC50: 16 µM
  IC90: 38 µM
NBAS-5 (Neuroblastoma); NBAS-5
  AB/GOMB IC50 Ratio: 23.2
  AB/GOMB IC90 Ratio: 343
K562 (Erytholeukemia); [24]
  IC50: 43.3 µM
  IC90: 97 µM
K562 (Erytholeukemia); K562
  AB/GOMB IC50 Ratio: 17.8
  AB/GOMB IC90 Ratio: 68.6
SK-N-MC (Neuroblastoma); [25]
  IC50: 16 µM
  IC90: 35 µM
SK-N-MC (Neuroblastoma); SK-N-MC
  AB/GOMB IC50 Ratio: 13.4
  AB/GOMB IC90 Ratio: 37.5
[6]; [26]
  IC50: 68.1 µM
  IC90: 107 µM
[6]; LNCaP
  AB/GOMB IC50 Ratio: 11.4
  AB/GOMB IC90 Ratio: 63
[7]; [27]
  IC50: 65.9 µM
  IC90: 85.3 µM
[7]; MCF7-40F
  AB/GOMB IC50 Ratio: 12.4
  AB/GOMB IC90 Ratio: 37.3
K-562 cells; 12.5 μM
  % apoptotic cells K-562: 9%
K-562 cells; 25.0 μM
  % apoptotic cells K-562: 18%
HL-60 cells [8]; 5.0 μM
  % apoptotic cells HL-60: 9.4%
HL-60 cells [8]; 12.5 μM
  % apoptotic cells HL-60: 14.9%
HL-60 cells [8]; 25.0 μM
  % apoptotic cells HL-60: 15.8%
HL-60 cells [8]; 37.5 μM
  % apoptotic cells HL-60: 36.3%
[9]
  activation at 200 µM: 49.5%
K562 cells (HbF) [10]; 0.01 mM
  HbF Synthesis in K562 Cells: 1.54 µg/mL
K562 cells (HbF) [10]; 0.05 mM
  HbF Synthesis in K562 Cells: 3.21 µg/mL
K562 cells (HbF) [10]; 0.10 mM
  HbF Synthesis in K562 Cells: 5.0 µg/mL
K562 cells (HbF) [11]; 0.01 mM
  Percentage K562 Cells Containing HbF: 6.3 ± 1.15%
K562 cells (HbF) [11]; 0.05 mM
  Percentage K562 Cells Containing HbF: 12.3 ± 5.3%
K562 cells (HbF) [11]; 0.10 mM
  Percentage K562 Cells Containing HbF: 29%
MCF-7 cells (WAF); 10 μM
  % Cells Expressing WAF: 36%
MCF-7 cells (WAF); 25 μM
  % Cells Expressing WAF: 34%
MCF-7 cells (WAF); 50 μM
  % Cells Expressing WAF: 79%
MCF-7 cells (WAF); 100 μM
  % Cells Expressing WAF: 81%
MCF-7 cells (WAF); versus 13% in the controls
  increase in percentage of cells expressing WAF: 623%
MCF-7 cells (WAF); versus AB
  concentration inducing apoptosis, lower than AB: 10 fold
MCF7 cells
  IC50: 109 µM
  IC90: 218 µM
HT-29 cells
  IC50: 98.2 µM
  IC90: 123 µM
CFPAC cells
  IC50: 32.5 µM
  IC90: 41 µM
HL-60 cells [12]
  IC50: 24.5 µM
  IC90: 53.6 µM
[13]
  ratio of IC50 AB:IC50 GOMB, median: 28.5
  ratio of IC90 AB:IC90 GOMB, median: 53
  ratio of IC90 AB:IC90 GOMB, range: 26-342 fold
[14]
  potency relative to AB in inhibiting EBV-positive lymphoma cells: 10 fold

## CCCC(=O)[O-].[Na+] [SB, sodium butyrate]
[15]
  apoptosis: produce apoptosis
